{"source": "patent US10265276B2", "about": "“Pharmaceutical composition for preventing or treating arthritis or inflammatory disease containing 2-methoxy-4-(3-(4-methoxyphenyl)propyl-1-en-1-yl)phenol as active ingredient” (CHUNGBUK NATIONAL UNIVERSITY INDUSTRY-ACADEMIC COOPERATION …, priority 2015, dated 2019)", "tested_on": "CAIA-induced C57BL/6 mice", "experiment": "Collagen antibody-induced arthritis (CAIA) model", "type": "in vivo, mouse", "conditions": "5 mg/kg, p.o. daily", "method": "14. Induction of rheumatoid arthritis in C57BL/6 mice: To induce rheumatoid arthritis, anti-collagen-II mAbs (CII-Ab, Arthrogen-CIA Arthritogenic Monoclonal Antibody, #53010: Chondrex, Inc., WA, USA) were intraperitoneally (i.p.) injected into 7-week-old male mice on the first day, and 50 μg of LPS was injected on the third day. To evaluate the severity of arthritis, a scoring system was applied according to the criteria.\n0. No erythema and swelling are observed.\n1. Slight erythema is observed in tarsals and ankle joints.\n2. Slight erythema and swelling are observed from an ankle joint to the midfoot.\n3. Erythema and swelling extending from ankle joints to the metatarsals are observed.\n4. Erythema and severe swelling were observed throughout the ankles, feet, and fingers.\nThe sum of final scores was recorded daily until the sum reached 16. On the 18th day, each of the mice was anesthetized, and then located on a radiographic view box. Thereafter, a location of each of the mice was adjusted so that the mouse was disposed at a distance of 90 cm from an X-ray source. The radioanalysis on hind legs with arthritis was performed by irradiating the hind legs at […] for 0.01 seconds using an X-ray machine (BLD-150RK, Hradec Kralove, Czech Republic).\n15. Immunohistochemical assay: An immunohistochemical assay was carried out using an avidin-biotin-peroxidase method known in the art. Each of joint tissue samples collected from the mice was fixed with formalin, and embedded in paraffin. These samples were continuously microtomed into sections with a thickness of 4 μm. Each of the sections was stained with haematoxylin/eosin (H&E), anti-COX-2 and anti-iNOS antibodies (Caymen Chemical, Ann Arbor, Mich.).\nReferring to FIG. 10(A), MMPP (5 mg/kg, p.o.) (dissolved in 100 μL of PBS including 0.5 μL of DMSO), a vehicle (a negative control), or indomethacin (5 mg/kg, p.o./dissolved in […] of PBS after the dissolution) was administered daily to 7-week-old male C57BL/6 mice for 18 days.", "data": [{"smiles": "COc1ccc2c(c1)c(CC(=O)O)c(C)n2C(=O)c1ccc(Cl)cc1", "note": "[indomethacin, reference compound]", "values": [{"measurement": "clinical score lower than that of the CAIA group", "value": 64.8, "unit": "%"}]}]}
